Several values for one entry are separate records, joined by “and”; a condition that tells them apart may be missing. Equal values may be shown once. Read-outs that look alike come from different tables or passages of the source.
Tests used:
EppA [1] = biological target: T1, EppA (Chelativorans sp. BNC1, UniProt Q11H97); assay: Isothermal titration calorimetry of wild-type EppA with chelators and metal chelates; type: binding
EppA [2] = biological target: T1, EppA; details: earlier report; cited from earlier work
R56A EppA mutant = R56A EppA mutant (Chelativorans sp. BNC1, UniProt Q11H97, R56A); assay: biochemical
Method: (§1) All primers were ordered from Invitrogen (Carlsbad, CA, USA).
(§2) Isothermal calorimetric titrations were performed in a MicroCal iTC200 (Malvern Panalytical Ltd.; Malvern, UK). All titrations were performed at 25 °C and stirred at 750 rpm. […] EppA–ligand binding curves were corrected for heats of dilution by subtracting reference titrations of ligands at the same concentrations into a buffer without EppA. Data were fitted to a single-site model as implemented into the Origin 7 MicroCal Data Analysis software analysis package (Malvern Panalytical Ltd.; Malvern, UK) and then plotted in Excel.

R74A EppA mutant = R74A EppA mutant (Chelativorans sp. BNC1, UniProt Q11H97, R74A); assay: biochemical
Method: as §1, §2

R480A EppA mutant = R480A EppA mutant (Chelativorans sp. BNC1, UniProt Q11H97, R480A); assay: biochemical
Method: as §1, §2

K470A EppA mutant = K470A EppA mutant (Chelativorans sp. BNC1, UniProt Q11H97, K470A); assay: biochemical
Method: as §1, §2

[3] = ITC, wild-type EppA, 25 °C, single replicate, n.b. = no binding
[4] = ITC, wild-type EppA, 25 °C, single-site model, single replicate, n.b. = no binding

Chain of R74A EppA mutant (Q11H97 27-563, stated change not applied): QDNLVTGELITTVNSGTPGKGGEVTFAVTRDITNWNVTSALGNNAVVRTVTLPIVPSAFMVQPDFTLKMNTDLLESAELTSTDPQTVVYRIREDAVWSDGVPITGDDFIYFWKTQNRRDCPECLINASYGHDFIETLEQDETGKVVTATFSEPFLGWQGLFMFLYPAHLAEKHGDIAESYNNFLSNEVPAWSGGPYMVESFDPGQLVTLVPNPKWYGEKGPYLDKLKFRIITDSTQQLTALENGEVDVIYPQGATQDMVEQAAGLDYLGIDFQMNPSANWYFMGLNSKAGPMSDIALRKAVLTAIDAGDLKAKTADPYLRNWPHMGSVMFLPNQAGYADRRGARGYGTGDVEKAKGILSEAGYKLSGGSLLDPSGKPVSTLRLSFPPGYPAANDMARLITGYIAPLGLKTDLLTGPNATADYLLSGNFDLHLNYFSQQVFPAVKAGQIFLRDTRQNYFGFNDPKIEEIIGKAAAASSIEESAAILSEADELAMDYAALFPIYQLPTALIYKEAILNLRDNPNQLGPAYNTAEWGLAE
T1 sequence (Q11H97 entry or part of it): as the sequence (Q11H97 27-563, stated change not applied) above
Chain of R56A EppA mutant (Q11H97 27-563, stated change not applied): as above
Chain of K470A EppA mutant (Q11H97 27-563, stated change not applied): as above
Chain of R480A EppA mutant (Q11H97 27-563, stated change not applied): as above

Molecule	binding by EppA (in words) (EppA [1]; ITC, wild-type EppA)	∆H (EppA [1]; [3])	∆S (EppA [1]; [3])	∆H (EppA [1])	∆S (EppA [1])	Kd (EppA [1]; [4])	further results
O=C(O)CN(CCN(CC(=O)O)CC(=O)O)CC(=O)O.[Cd+2] [CdEDTA]	did not bind	-0.555 ± 0.002 kcal/mol	28.1 cal mol^−1 K^−1	–	–	–	–
O=C(O)CN(CCN(CC(=O)O)CC(=O)O)CC(=O)O.[Tb+3] [TbEDTA]	–	–	–	-0.751 ± 0.069 kcal/mol	18.1 cal mol^−1 K^−1	–	–
Asp10: decameric polyaspartate (DDDDDDDDDD) [reference compound]	did not bind	n.b.	n.b.	–	–	n.b. ^c	–
O=C([O-])CN(CCN(CC(=O)O)CC(=O)O)CC(=O)[O-].[Ba+2] [BaEDTA]	–	n.b.	n.b.	–	–	n.b.	–
O=C(O)CN(CCN(CC(=O)O)CC(=O)O)CC(=O)O.[Mg+2] [MgEDTA]	–	–	–	-4.028 ± 0.037 kcal/mol	16.2 cal mol^−1 K^−1	–	–
O=C(O)CN(CCN(CC(=O)O)CC(=O)O)CC(=O)O.[Sr+2] [SrEDTA]	–	–	–	-4.392 ± 0.118 kcal/mol	27.1 cal mol^−1 K^−1	–	–
O=C(O)CN(CCOCCOCCN(CC(=O)O)CC(=O)O)CC(=O)O.[Sr+2] [SrEGTA]	–	0.794 ± 0.164 kcal/mol	27.1 cal mol^−1 K^−1	–	–	–	–
O=C(O)CN(CCN(CC(=O)O)CC(=O)O)CC(=O)O.[Zn] [ZnEDTA]	did not bind	n.b.	n.b.	–	–	n.b.	–
O=C(O)CN(CCN(CC(=O)O)CC(=O)O)CC(=O)O.[Ca+2] [CaEDTA]	–	–	–	-2.917 ± 0.038 kcal/mol	16.0 cal mol^−1 K^−1	–	binding by EppA (in words) (EppA [1]): bound
O=C([O-])CN(CCOCCOCCN(CC(=O)O)CC(=O)O)CC(=O)[O-].[Ca+2] [CaEGTA]	not	n.b.	n.b.	–	–	n.b.	–
O=C([O-])CN(CCN(CC(=O)[O-])CC(=O)[O-])CC(=O)[O-].[Cu+2] [CuEDTA]	did not bind	n.b.	n.b.	–	–	n.b.	–
O=C(O)CN(CCN(CC(=O)O)CC(=O)O)CC(=O)O.[Cr+3] [CrEDTA]	–	–	–	-2.573 ± 0.145 kcal/mol	30.5 cal mol^−1 K^−1	–	–
O=C(O)CNCCNCC(=O)O [EDDA, ethylenediamine-N,N′-diacetate, reference compound]	–	–	–	-0.851 ± 0.893 kcal/mol	26.7 cal mol^−1 K^−1	–	Kd (EppA [1]; ITC, wild-type EppA, 25 °C, single-site model, single replicate, n.b. = no binding, read-out: Kd): 588 nM and 340 nM
O=C([O-])CN(CCN(CC(=O)[O-])CC(=O)[O-])CC(=O)[O-].[Co+2] [CoEDTA]	did not bind	n.b.	n.b.	–	–	n.b.	–
O=C(O)CN(CCN(CC(=O)O)CC(=O)O)CC(=O)O.[Eu+3] [EuEDTA]	–	–	–	-3.943 ± 0.105 kcal/mol	7.72 cal mol^−1 K^−1	–	–
MnEDTA	did not bind	n.b.	n.b.	–	–	n.b.	–
O=C(O)CN(CCN(CC(=O)O)CC(=O)O)CC(=O)O [EDTA, ethylenediaminetetraacetate]	–	–	–	-2.283 kcal/mol and -2.283 ± 0.07 kcal/mol and -2.283 ± 0.070 kcal/mol	29 cal mol^−1 K^−1	–	Kd (EppA [1]; Kd, ITC, wild-type EppA, 25 °C, single replicate): 9.52 ± 6.25 nM; Kd (EppA [1]; Kd, ITC, wild-type EppA, 25 °C, single-site model, single replicate, n.b. = no binding): 9.5 ± 6 nM; binding by EppA (in words) (EppA [2]): binds; Kd (R56A EppA mutant): 161 ± 272 nM; ∆H (R56A EppA mutant; ITC, R56A mutant, 25 °C): -1.802 kcal/mol and -1.802 ± 0.147 kcal/mol; ∆S (R56A EppA mutant; ITC, R56A mutant, 25 °C): 25 cal mol^−1 K^−1; reduction in EDTA binding (R56A EppA mutant; R56A vs wild-type EppA): 17 fold; Kd (R74A EppA mutant): 249 ± 382 nM; ∆H (R74A EppA mutant; ITC, R74A mutant, 25 °C): -1.877 kcal/mol and -1.877 ± 0.195 kcal/mol; ∆S (R74A EppA mutant; ITC, R74A mutant, 25 °C): 23.9 cal mol^−1 K^−1; reduction in EDTA binding (R74A EppA mutant; R74A vs wild-type EppA): 26 fold; Kd (R480A EppA mutant): 40.8 ± 26.5 nM; ∆H (R480A EppA mutant; ITC, R480A mutant, 25 °C): -1.138 kcal/mol and -1.138 ± 0.089 kcal/mol; ∆S (R480A EppA mutant; ITC, R480A mutant, 25 °C): 30 cal mol^−1 K^−1; reduction in EDTA binding (R480A EppA mutant; R480A vs wild-type EppA): 4 fold; Kd (K470A EppA mutant): 27.1 ± 20.2 nM; ∆H (K470A EppA mutant; ITC, K470A mutant, 25 °C): -1.872 kcal/mol and -1.872 ± 0.117 kcal/mol; ∆S (K470A EppA mutant; ITC, K470A mutant, 25 °C): 28.3 cal mol^−1 K^−1; reduction in EDTA binding (K470A EppA mutant; K470A vs wild-type EppA): 3 fold
O=C([O-])CN(CCN(CC(=O)[O-])CC(=O)[O-])CC(=O)[O-].[Fe+3] [FeEDTA]	did not bind	n.b.	n.b.	–	–	n.b.	–
O=C(O)CN(CCOCCOCCN(CC(=O)O)CC(=O)O)CC(=O)O [EGTA, ethylene glycol-bis(β-aminoethylether)-N,N,N′,N′-tetraacetic acid, reference compound]	–	-4.340 kcal/mol and -4.34 ± 0.114 kcal/mol	16.40 cal mol^−1 K^−1 and 16.4 cal mol^−1 K^−1	–	–	–	–
O=C([O-])CN(CCN(CC(=O)[O-])CC(=O)[O-])CC(=O)[O-].[Ni+2] [NiEDTA]	did not bind	n.b.	n.b.	–	–	n.b.	–

Reference: PMC7312458, “The Structural Basis of the Binding of Various Aminopolycarboxylates by the Periplasmic EDTA-Binding Protein EppA from Chelativorans sp. BNC1” (International Journal of Molecular Sciences, 2020)
